Assays:
[1] = system: Salmonella typhimurium TA l00; assay: Ames test (preincubation method), inactivation of mutagenicity of MNNG, without S9; format: cell-based
Experimental: (§1) One of the methods for determining carcinogenicity that have recently been established is the Salmonella test (also known as the Ames test) that uses the requirement for histidine as an evaluation index (Ames, B.N. et al.: Mutation Res., Vol. 3l, 347, l975). […] Therefore, the present inventors chose to use the Ames test as a means for screening various compounds to discover cancer control substances.
(§2) • (i) Method: The preincubation method shown in Sugimura & Nagao: Chemical Mutagens, Vol. 6, page 4l, l98l was used. • (ii) Microorganism: Histidine requiring Salmonella typhimurium strains TA l00 and TA 98 (hereunder TA l00 and St TA 98) were used. • (iii) Preparation of samples • a) MNNG: To MNNG samples (l µg/plate), coenzyme A was added in amounts of 0.0l µM, 0.l µM and l.0 µM/plate. • b) Benzo[a]pyrene: To benzo[a]pyrene samples (l0 µg/plate), coenzyme A was added in amounts of 0.0009, 0.009 and 0.09µM/plate. • (iv) Measuring mutagenicity
(§3) To l00 µl of each of the samples prepared in (iii) a), 500 µl of l00 mM sodium phosphate buffer (pH 7.4) and l00 µl of a culture of St TA l00 were added. To l00 µl of each of the samples prepared in (iii) b), 500 µl of S9 mix (rat liver homogenate) and l00 µl of a culture of TA 98 were added. […] After incubation at 37°C for 48 hours, the number of colonies on the plates was counted as revertants. […]

[2] = system: Salmonella typhimurium TA 98; assay: Ames test (preincubation method), inactivation of mutagenicity of benzo[a]pyrene, with S9 mix (rat liver homogenate); format: cell-based
Experimental: as §1, §2, §3

[3] = system: St TA l00 or St TA 98 strain; assay: Ames test (preincubation method), inactivation of mutagenicity of carcinogens/mutagens by pantothenates, without S9; format: cell-based, Salmonella typhimurium
Experimental: as §2
• (i) Method: See Example l. • (ii) Microorganism: See Example l. • (iii) Preparation of samples • a) The carcinogenic or mutagenic substances used in Example 3 and their concentrations are listed in Table 5. [formula] • b) Adding pantothenates (Na and Ca salts) Pantothenates were added to each of the carcinogenic or mutagenic samples in amounts of 0, 0.005, 0.05, and 5.0 µM/plate. • (iv) Measuring mutagenicity To l00 µl of each of the samples prepared in (iii) a), 500 µl of l00 mM sodium phosphate buffer (pH 7.4) was added. Thereafter, l00 µl of a culture of St TA l00 or St TA 98 strain was added as indicated in Table 6. [formula] The respective mixtures were shaken for 20 minutes at 37°C. After adding 2.5 ml of a soft agar solution, the mixtures were spread on minimum glucose agar plates which had been supplemented with 0.l µM/plate of histidine for causing several […] of the cells. After incubation at 37°C for 48 hours, the number of colonies on the plates was counted as revertants.

Molecule: CC(C)(COP(=O)(O)OP(=O)(O)OC[C@H]1O[C@@H](n2cnc3c(N)ncnc32)[C@H](O)[C@@H]1OP(=O)(O)O)[C@@H](O)C(=O)NCCC(=O)NCCS [Coenzyme A, coenzyme A]
- inhibition of the mutagenicity of MNNG ([1]; 150 mols of coenzyme A added to 1 mol of MNNG): completely
- inactivation of the mutagenicity of benzo[a]pyrene ([2]; 10 mols of coenzyme A added to 1 mol of benzo[a]pyrene): about 90%

Molecule: Cc1ncc(COP(=O)(O)O)c(C=O)c1O [Pyridoxal-5′-phosphoric acid, pyridoxal-5′-phosphoric acid]
- inhibition of the mutagenicity of MNNG ([1]; 150 mols of compound added to 1 mol of MNNG): about 50%
- inactivation of the mutagenicity of benzo[a]pyrene ([2]; 25 mols of compound added to 1 mol of benzo[a]pyrene): about 80%

Molecule: CC(C)(CO)[C@@H](O)C(=O)NCCC(=O)[O-].[Na+] [Sodium pantothenate, sodium pantothenate]
- inactivation of the mutagenicity of methylglyoxal ([3]; 18 mols of sodium pantothenate added to 1 mol of methylglyoxal): 77%
- inactivation of the mutagenicity of adriamycin ([3]; 2273 mols of sodium pantothenate added to 1 mol of adriamycin): 59%
- inactivation of the mutagenicity of AF-2 ([3]; 6250 mols of sodium pantothenate added to 1 mol of AF-2): 58%

Molecule: calcium pantothenate
- inactivation of the mutagenicity of MNU ([3]; 6 mols of calcium pantothenate added to 1 mol of MNU): completely
- inactivation of the mutagenicity of MNNG ([3]; 73 mols of calcium pantothenate added to 1 mol of MNNG): 48%
